# Assay results taken from ChEMBL document CHEMBL4818987, “Recent advances of podophyllotoxin/epipodophyllotoxin hybrids in anticancer activity, mode of action, and structure-activity relationship: An update (2010-2020)” (Eur J Med Chem, 2020).
# What was measured:
# Assay type in all cases: functional, cell-based
# MKN-45 = test: Antiproliferative activity against human MKN-45 cells incubated for 48 to 72 hrs by MTT assay
# HepG2 = test: Antiproliferative activity against human HepG2 cells incubated for 48 to 72 hrs by MTT assay
# B16 = test: Antiproliferative activity against […] cells incubated for 48 to 72 hrs by MTT assay; details: Mus musculus
# NCI-H1993 = test: Antiproliferative activity against human NCI-H1993 cells incubated for 48 to 72 hrs by MTT assay
# KB [1] = test: Cytotoxicity against human KB cells incubated for 72 hrs by SRB method
# KB [2] = test: Cytotoxicity against human Vincristine-resistant KB cells incubated for 72 hrs by SRB method
SMILES,IC50 (MKN-45),IC50 (HepG2),IC50 (B16),IC50 (NCI-H1993),IC50 (KB [1]),IC50 (KB [2])
COc1cc([C@@H]2c3cc4c(cc3[C@H](n3cc(COc5ccc6c(c5)OCO6)nn3)[C@H]3COC(=O)[C@H]23)OCO4)cc(OC)c1OC,130 nM,130 nM,130 nM,130 nM,–,–
COc1cc([C@@H]2c3cc4c(cc3[C@@H](SSCCO)[C@H]3COC(=O)[C@H]23)OCO4)cc(OC)c1O,–,–,–,–,1120 nM,1120 nM
COc1cc([C@@H]2c3cc4c(cc3[C@@H](SSCCCN3CCC(O)CC3)[C@H]3COC(=O)[C@H]23)OCO4)cc(OC)c1O,–,–,–,–,1120 nM,1120 nM
COc1cc([C@@H]2c3cc4c(cc3[C@H](n3cc(COc5ccc(-c6ccccc6)cc5)nn3)[C@H]3COC(=O)[C@H]23)OCO4)cc(OC)c1OC,150 nM,150 nM,150 nM,150 nM,–,–
COc1cc([C@@H]2c3cc4c(cc3[C@@H](SSCCCN3CCOCC3)[C@H]3COC(=O)[C@H]23)OCO4)cc(OC)c1O,–,–,–,–,1120 nM,1120 nM
COc1cc([C@@H]2c3cc4c(cc3[C@H](n3cc(COc5ccc(C)c([N+](=O)[O-])c5)nn3)[C@H]3COC(=O)[C@H]23)OCO4)cc(OC)c1OC,130 nM,130 nM,130 nM,130 nM,–,–
COc1cc([C@@H]2c3cc4c(cc3[C@@H](SSCCCN3CCCC3)[C@H]3COC(=O)[C@H]23)OCO4)cc(OC)c1O,–,–,–,–,1120 nM,1120 nM
COc1cc([C@@H]2c3cc4c(cc3[C@H](n3cc(COc5cccc([N+](=O)[O-])c5)nn3)[C@H]3COC(=O)[C@H]23)OCO4)cc(OC)c1OC,130 nM,130 nM,130 nM,130 nM,–,–
COc1cc([C@@H]2c3cc4c(cc3[C@@H](SSc3cccs3)[C@H]3COC(=O)[C@H]23)OCO4)cc(OC)c1O,–,–,–,–,1120 nM,1120 nM
COc1cc([C@@H]2c3cc4c(cc3[C@@H](SSSCC(=O)N3CCNCC3)[C@H]3COC(=O)[C@H]23)OCO4)cc(OC)c1O,–,–,–,–,1120 nM,1120 nM
COc1cc([C@@H]2c3cc4c(cc3[C@@H](SSCCN3CCCC(O)C3)[C@H]3COC(=O)[C@H]23)OCO4)cc(OC)c1O (stereo not given in full),–,–,–,–,1120 nM,1120 nM
COc1cc([C@@H]2c3cc4c(cc3[C@@H](SSSCC(O)CO)[C@H]3COC(=O)[C@H]23)OCO4)cc(OC)c1O (stereo not given in full),–,–,–,–,1120 nM,1120 nM
COc1ccc(SCc2cn([C@H]3c4cc5c(cc4[C@@H](c4cc(OC)c(OC)c(OC)c4)[C@H]4C(=O)OC[C@@H]43)OCO5)nn2)cc1,130 nM,130 nM,130 nM,130 nM,–,–
COc1cc([C@@H]2c3cc4c(cc3[C@@H](SSSCCO)[C@H]3COC(=O)[C@H]23)OCO4)cc(OC)c1O,–,–,–,–,1120 nM,1120 nM
COc1ccc(SCc2cn([C@H]3c4cc5c(cc4[C@@H](c4cc(OC)c(OC)c(OC)c4)[C@H]4C(=O)OC[C@@H]43)OCO5)nn2)cc1OC,130 nM,130 nM,130 nM,130 nM,–,–
COc1cc([C@@H]2c3cc4c(cc3[C@@H](SS[C@@H]3O[C@@H]5O[C@@H](c6cccs6)OC[C@H]5[C@H](O)[C@H]3O)[C@H]3COC(=O)[C@H]23)OCO4)cc(OC)c1O,–,–,–,–,1120 nM,1120 nM
COc1cc([C@@H]2c3cc4c(cc3[C@@H](SSCC(=O)N3CCC(=O)CC3)[C@H]3COC(=O)[C@H]23)OCO4)cc(OC)c1O,–,–,–,–,1120 nM,1120 nM
COc1ccc(OCc2cn([C@H]3c4cc5c(cc4[C@@H](c4cc(OC)c(OC)c(OC)c4)[C@H]4C(=O)OC[C@@H]43)OCO5)nn2)cc1,130 nM,130 nM,130 nM,130 nM,–,–
COc1cc([C@@H]2c3cc4c(cc3[C@@H](SSCCN3CCNCC3)[C@H]3COC(=O)[C@H]23)OCO4)cc(OC)c1O,–,–,–,–,1120 nM,1120 nM
COc1cc([C@@H]2c3cc4c(cc3[C@@H](SSCCCN3CCN(C)CC3)[C@H]3COC(=O)[C@H]23)OCO4)cc(OC)c1O,–,–,–,–,1120 nM,1120 nM
COc1cc([C@@H]2c3cc4c(cc3[C@@H](SSCCN3CCOCC3)[C@H]3COC(=O)[C@H]23)OCO4)cc(OC)c1O,–,–,–,–,1120 nM,1120 nM
COc1cc([C@@H]2c3cc4c(cc3[C@@H](SSCCCN3CCN(C(C)=O)CC3)[C@H]3COC(=O)[C@H]23)OCO4)cc(OC)c1O,–,–,–,–,1120 nM,1120 nM
COc1cc([C@@H]2c3cc4c(cc3[C@@H](SSCCCN(C(C)C)C(C)C)[C@H]3COC(=O)[C@H]23)OCO4)cc(OC)c1O,–,–,–,–,1120 nM,1120 nM
COc1cc([C@@H]2c3cc4c(cc3[C@@H](SSS[C@@H]3O[C@H](CO)[C@@H](O)[C@H](O)[C@H]3O)[C@H]3COC(=O)[C@H]23)OCO4)cc(OC)c1O,–,–,–,–,1120 nM,1120 nM

SMILES,IC50 (MKN-45),IC50 (HepG2),IC50 (B16),IC50 (NCI-H1993),IC50 (KB [1]),IC50 (KB [2])
COc1cc([C@@H]2c3cc4c(cc3[C@@H](SSc3cccnc3)[C@H]3COC(=O)[C@H]23)OCO4)cc(OC)c1O,–,–,–,–,1120 nM,1120 nM
COc1cc([C@@H]2c3cc4c(cc3[C@@H](SSCC(=O)N3CCCC(O)C3)[C@H]3COC(=O)[C@H]23)OCO4)cc(OC)c1O (stereo not given in full),–,–,–,–,1120 nM,1120 nM
COC(=O)C(N)CSS[C@@H]1c2cc3c(cc2[C@@H](c2cc(OC)c(O)c(OC)c2)[C@H]2C(=O)OC[C@@H]21)OCO3 (stereo not given in full),–,–,–,–,1120 nM,1120 nM
COc1cc([C@@H]2c3cc4c(cc3[C@@H](SSCC(=O)N3CCOCC3)[C@H]3COC(=O)[C@H]23)OCO4)cc(OC)c1O,–,–,–,–,1120 nM,1120 nM
COc1cc([C@@H]2c3cc4c(cc3[C@@H](SSCCN)[C@H]3COC(=O)[C@H]23)OCO4)cc(OC)c1O,–,–,–,–,1120 nM,1120 nM
COc1cc([C@@H]2c3cc4c(cc3[C@@H](SSCC(=O)N3CCC(O)CC3)[C@H]3COC(=O)[C@H]23)OCO4)cc(OC)c1O,–,–,–,–,1120 nM,1120 nM
COc1cc([C@@H]2c3cc4c(cc3[C@@H](SSc3ccccn3)[C@H]3COC(=O)[C@H]23)OCO4)cc(OC)c1O,–,–,–,–,1120 nM,1120 nM
COc1cc([C@@H]2c3cc4c(cc3[C@@H](SS[C@@H]3O[C@H](CO)[C@@H](O)[C@H](O)[C@H]3O)[C@H]3COC(=O)[C@H]23)OCO4)cc(OC)c1O,–,–,–,–,1120 nM,1120 nM
CCN(CC)CCCSS[C@@H]1c2cc3c(cc2[C@@H](c2cc(OC)c(O)c(OC)c2)[C@H]2C(=O)OC[C@@H]21)OCO3,–,–,–,–,1120 nM,1120 nM
CCC(C)(C)c1ccc(OCc2cn([C@H]3c4cc5c(cc4[C@@H](c4cc(OC)c(OC)c(OC)c4)[C@H]4C(=O)OC[C@@H]43)OCO5)nn2)cc1,130 nM,130 nM,130 nM,130 nM,–,–
CCSSS[C@@H]1c2cc3c(cc2[C@@H](c2cc(OC)c(O)c(OC)c2)[C@H]2C(=O)OC[C@@H]21)OCO3,–,–,–,–,1120 nM,1120 nM
COc1cc([C@@H]2c3cc4c(cc3[C@H](n3cc(COc5ccc6ccc(=O)oc6c5)nn3)[C@H]3COC(=O)[C@H]23)OCO4)cc(OC)c1OC,130 nM,130 nM,130 nM,130 nM,–,–
COc1cc([C@@H]2c3cc4c(cc3[C@@H](SS[C@@H]3O[C@@H]5O[C@@H](C)OC[C@H]5[C@H](O)[C@H]3O)[C@H]3COC(=O)[C@H]23)OCO4)cc(OC)c1O,–,–,–,–,1120 nM,1120 nM
CCc1ccc(OC(C)(C)c2cn([C@H]3c4cc5c(cc4[C@@H](c4cc(OC)c(OC)c(OC)c4)[C@H]4C(=O)OC[C@@H]43)OCO5)nn2)cc1,150 nM,150 nM,150 nM,150 nM,–,–
CCc1ccc(OCc2cn([C@H]3c4cc5c(cc4[C@@H](c4cc(OC)c(OC)c(OC)c4)[C@H]4C(=O)OC[C@@H]43)OCO5)nn2)cc1,130 nM,130 nM,130 nM,130 nM,–,–
COc1cc([C@@H]2c3cc4c(cc3[C@@H](SSCC(=O)N3CCNCC3)[C@H]3COC(=O)[C@H]23)OCO4)cc(OC)c1O,–,–,–,–,1120 nM,1120 nM
COc1cc([C@@H]2c3cc4c(cc3[C@@H](SSCCCN3CCCCC3)[C@H]3COC(=O)[C@H]23)OCO4)cc(OC)c1O,–,–,–,–,1120 nM,1120 nM
COc1cc([C@@H]2c3cc4c(cc3[C@@H](SS[C@@H]3O[C@H](COC(C)=O)[C@H](OC(C)=O)[C@H](OC(C)=O)[C@H]3OC(C)=O)[C@H]3COC(=O)[C@H]23)OCO4)cc(OC)c1O,–,–,–,–,1120 nM,1120 nM
COc1cc([C@@H]2c3cc4c(cc3[C@@H](SSCCCN3CCCCC3CO)[C@H]3COC(=O)[C@H]23)OCO4)cc(OC)c1O (stereo not given in full),–,–,–,–,1120 nM,1120 nM
COc1cc([C@@H]2c3cc4c(cc3[C@@H](SSSCCCN3CCOCC3)[C@H]3COC(=O)[C@H]23)OCO4)cc(OC)c1O,–,–,–,–,1120 nM,1120 nM
COc1cc([C@@H]2c3cc4c(cc3[C@H](n3cc(COc5ccc([N+](=O)[O-])cc5)nn3)[C@H]3COC(=O)[C@H]23)OCO4)cc(OC)c1OC,130 nM,130 nM,130 nM,130 nM,–,–
CCSS[C@@H]1c2cc3c(cc2[C@@H](c2cc(OC)c(O)c(OC)c2)[C@H]2C(=O)OC[C@@H]21)OCO3,–,–,–,–,1120 nM,1120 nM
COc1cc([C@@H]2c3cc4c(cc3[C@@H](SSCCCN3CCNCC3)[C@H]3COC(=O)[C@H]23)OCO4)cc(OC)c1O,–,–,–,–,1120 nM,1120 nM
COc1cc([C@@H]2c3cc4c(cc3[C@@H](SS[C@@H]3O[C@H](CO)[C@H](O)[C@H](O)[C@H]3O)[C@H]3COC(=O)[C@H]23)OCO4)cc(OC)c1O,–,–,–,–,1120 nM,9960 nM
